Legend:
[1] = Through life dose consistency of mometasone furoate pMDI suspensions (USP <601>, apparatus A); type: physicochemical
Method: (§1) In the following examples, dose consistency was determined by in vitro measurement of single actuation dose content at start, middle and end of pMDI unit life in line with U.S. Pharmacopeia (USP)<601>, using a flow rate of 28.3 L/min and apparatus A. Aerodynamic particle size distribution of the pMDI suspension aerosols was measured at start of unit life in line with U.S. Pharmacopeia (USP)<601> using a Next Generation impactor without pre-separator (apparatus 6) and a flow rate of 30 L/min.
(§2) Suspensions of micronized mometasone furoate in HFA-152a or HFO-1234ze(E) were prepared. A first set of suspensions included no ethanol. A second set of suspensions included 2% ethanol by weight. Each suspension included an amount of mometasone furoate to provide a nominal delivered dose (ex-valve) of 0.5 mg/actuation (10.0 mg/mL) or 1.0 mg/actuation (20.0 mg/mL). Two further suspensions including no ethanol were prepared which included an amount of mometasone furoate to provide a nominal delivered dose (ex-valve) of 2.0 mg/actuation (40.0 mg/mL).
(§3) In total, ten suspension pMDI formulations were prepared in triplicate with sufficient fill weight to provide 60 actuations. Each suspension was filled into Kindeva FEP coated canisters, crimped with a Kindeva 50-μL valve. Each pMDI unit was sonicated for at least 10 minutes to disperse the suspended drug and tested with a Kindeva actuator having an exit orifice diameter (EOD) of 0.4 mm.
The through-life (TL) dose consistency of each pMDI unit was determined by measuring the mean ex-actuator delivered dose in micrograms of mometasone furoate (N=3) at the start of life (SoL), middle of life (MOL) and end of life (EoL) of the unit.

[2] = Aerodynamic particle size measurement of mometasone furoate pMDI suspensions (Next Generation impactor); type: physicochemical
From the text: In general, aerosols with mass median aerodynamic diameters (MMAD) of at least 1 μm but less than 5 μm in size are suitable for effective deep lung deposition for therapeutic effect. Herein, fine particle fraction (FPF) is defined as the percentage of the ex-actuator delivered API having a MMAD of less than 5 μm when tested in vitro. Herein, “ex-actuator” delivered dose is used to describe the amount of API delivered past the actuator of a pMDI. Therefore, an aerosol with a high FPF is typically suitable for deep lung deposition.
as §1, §2
as §3, with “0.4 mm or 0.25” for “0.4”
The mass median aerodynamic diameter (MMAD) and fine particle fraction (FPF) of each pMDI unit were measured by Next Generation cascade impaction (N=3) for each pMDI suspension.

[3] = nominal ex-valve 0.5 mg/act, HFA-152a
[4] = nominal ex-valve 0.5 mg/act, HFA-152a/2% EtOH (w/w)
[5] = nominal ex-valve 0.5 mg/act, HFO-1234ze(E)
[6] = nominal ex-valve 0.5 mg/act, HFO-1234ze(E)/2% EtOH (w/w)
[7] = nominal ex-valve 1.0 mg/act, HFA-152a
[8] = nominal ex-valve 1.0 mg/act, HFA-152a/2% EtOH (w/w)
[9] = nominal ex-valve 1.0 mg/act, HFO-1234ze(E)
[10] = nominal ex-valve 1.0 mg/act, HFO-1234ze(E)/2% EtOH (w/w)
[11] = nominal ex-valve 2.0 mg/act, HFA-152a
[12] = nominal ex-valve 2.0 mg/act, HFO-1234ze(E)
[13] = nominal ex-valve 0.5 mg/act, HFA-152a/2% EtOH (w/w), actuator exit orifice diameter 0.4 mm
[14] = nominal ex-valve 0.5 mg/act, HFA-152a, actuator exit orifice diameter 0.4 mm
[15] = nominal ex-valve 0.5 mg/act, HFO-1234ze(E)/2% EtOH (w/w), actuator exit orifice diameter 0.25 mm
[16] = nominal ex-valve 0.5 mg/act, HFO-1234ze(E)/2% EtOH (w/w), actuator exit orifice diameter 0.4 mm
[17] = nominal ex-valve 0.5 mg/act, HFO-1234ze(E), actuator exit orifice diameter 0.25 mm
[18] = nominal ex-valve 0.5 mg/act, HFO-1234ze(E), actuator exit orifice diameter 0.4 mm
[19] = nominal ex-valve 1.0 mg/act, HFA-152a/2% EtOH (w/w), actuator exit orifice diameter 0.25 mm
[20] = nominal ex-valve 1.0 mg/act, HFA-152a/2% EtOH (w/w), actuator exit orifice diameter 0.4 mm
[21] = nominal ex-valve 1.0 mg/act, HFA-152a, actuator exit orifice diameter 0.25 mm
[22] = nominal ex-valve 1.0 mg/act, HFA-152a, actuator exit orifice diameter 0.4 mm
[23] = nominal ex-valve 1.0 mg/act, HFO-1234ze(E)/2% EtOH (w/w), actuator exit orifice diameter 0.25 mm
[24] = nominal ex-valve 1.0 mg/act, HFO-1234ze(E)/2% EtOH (w/w), actuator exit orifice diameter 0.4 mm
[25] = nominal ex-valve 1.0 mg/act, HFO-1234ze(E), actuator exit orifice diameter 0.25 mm
[26] = nominal ex-valve 1.0 mg/act, HFO-1234ze(E), actuator exit orifice diameter 0.4 mm
[27] = nominal ex-valve 2.0 mg/act, HFA-152a, actuator exit orifice diameter 0.4 mm
[28] = nominal ex-valve 2.0 mg/act, HFO-1234ze(E), actuator exit orifice diameter 0.4 mm

Structure (SMILES): C[C@@H]1C[C@H]2[C@@H]3CCC4=CC(=O)C=C[C@]4(C)[C@@]3(Cl)[C@@H](O)C[C@]2(C)[C@@]1(OC(=O)c1ccco1)C(=O)CCl [mometasone furoate]
- effect of addition of ethanol on through unit life ex-actuator delivered dose consistency ([1]; 2% ethanol by weight, HFA-152a or HFO-1234ze(E)): did not always substantially improve
- through unit life ex-actuator delivered dose consistency ([1]; HFA-152a or HFO-1234ze(E) with and without 2% ethanol by weight): relatively consistent
- EoL mean delivered dose [1, 3]: 433.2 μg/act
- MoL mean delivered dose [1, 3]: 433.8 μg/act
- SoL mean delivered dose [1, 3]: 457.7 μg/act
- TL mean delivered dose [1, 3]: 441.6 μg/act
- EoL mean delivered dose [1, 4]: 450.9 μg/act
- MoL mean delivered dose [1, 4]: 427.3 μg/act
- SoL mean delivered dose [1, 4]: 408.9 μg/act
- TL mean delivered dose [1, 4]: 429.1 μg/act
- EoL mean delivered dose [1, 5]: 430.8 μg/act
- MoL mean delivered dose [1, 5]: 434.7 μg/act
- SoL mean delivered dose [1, 5]: 457.5 μg/act
- TL mean delivered dose [1, 5]: 441.0 μg/act
- EoL mean delivered dose [1, 6]: 465.7 μg/act
- MoL mean delivered dose [1, 6]: 453.1 μg/act
- SoL mean delivered dose [1, 6]: 433.9 μg/act
- TL mean delivered dose [1, 6]: 450.9 μg/act
- EoL mean delivered dose [1, 7]: 705.6 μg/act
- MoL mean delivered dose [1, 7]: 1018.3 μg/act
- SoL mean delivered dose [1, 7]: 1087.9 μg/act
- TL mean delivered dose [1, 7]: 937.3 μg/act
- EoL mean delivered dose [1, 8]: 759.7 μg/act
- MoL mean delivered dose [1, 8]: 936.3 μg/act
- SoL mean delivered dose [1, 8]: 906.5 μg/act
- TL mean delivered dose [1, 8]: 867.5 μg/act
- EoL mean delivered dose [1, 9]: 934.4 μg/act
- MoL mean delivered dose [1, 9]: 931.9 μg/act
- SoL mean delivered dose [1, 9]: 752.4 μg/act
- TL mean delivered dose [1, 9]: 855.3 μg/act
- EoL mean delivered dose [1, 10]: 848.1 μg/act
- MoL mean delivered dose [1, 10]: 1003.4 μg/act
- SoL mean delivered dose [1, 10]: 852.6 μg/act
- TL mean delivered dose [1, 10]: 901.4 μg/act
- EoL mean delivered dose [1, 11]: 1613.8 μg/act
- MoL mean delivered dose [1, 11]: 1771.5 μg/act
- SoL mean delivered dose [1, 11]: 1815.1 μg/act
- TL mean delivered dose [1, 11]: 1733.4 μg/act
- EoL mean delivered dose [1, 12]: 1837.0 μg/act
- MoL mean delivered dose [1, 12]: 1725.9 μg/act
- SoL mean delivered dose [1, 12]: 1755.0 μg/act
- TL mean delivered dose [1, 12]: 1772.6 μg/act
- FPF with actuator EOD 0.25 mm compared with EOD 0.4 mm ([2]; 0.5 and 1.0 mg/actuation in HFO-1234ze(E), 1.0 mg/actuation in HFA-152a): consistently greater FPFs
- MMAD values of aerosols, suitability ([2]; HFA-152a or HFO-1234ze(E), with and without ethanol, in-vitro): in an appropriate respirable range
- FPF without ethanol compared with corresponding suspensions with 2% ethanol by weight ([2]; HFA-152a or HFO-1234ze(E), all nominal doses): generally produced greater FPFs
- Mean FPF [2, 13]: 34.0%
- Mean MMAD [2, 13]: 3.55 μm
- Mean FPF [2, 14]: 37.5%
- Mean MMAD [2, 14]: 3.56 μm
- Mean FPF [2, 15]: 55.3%
- Mean MMAD [2, 15]: 3.70 μm
- Mean FPF [2, 16]: 39.0%
- Mean MMAD [2, 16]: 3.70 μm
- Mean FPF [2, 17]: 66.6%
- Mean MMAD [2, 17]: 3.41 μm
- Mean FPF [2, 18]: 49.8%
- Mean MMAD [2, 18]: 3.36 μm
- Mean FPF [2, 19]: 45.3%
- Mean MMAD [2, 19]: 3.91 μm
- Mean FPF [2, 20]: 31.1%
- Mean MMAD [2, 20]: 3.90 μm
- Mean FPF [2, 21]: 49.1%
- Mean MMAD [2, 21]: 3.75 μm
- Mean FPF [2, 22]: 29.4%
- Mean MMAD [2, 22]: 4.13 μm
- Mean FPF [2, 23]: 52.5%
- Mean MMAD [2, 23]: 3.84 μm
- Mean FPF [2, 24]: 31.8%
- Mean MMAD [2, 24]: 4.01 μm
- Mean FPF [2, 25]: 58.8%
- Mean MMAD [2, 25]: 3.61 μm
- Mean FPF [2, 26]: 39.5%
- Mean MMAD [2, 26]: 3.69 μm
- Mean FPF [2, 27]: 19.5%
- Mean MMAD [2, 27]: 5.09 μm
- Mean FPF [2, 28]: 22.5%
- Mean MMAD [2, 28]: 4.87 μm
- FPF and MMAD in HFO-1234ze(E) compared with corresponding suspensions in HFA-152a ([2]; with or without ethanol): consistently produced greater FPFs and generally smaller MMADs
